From PubChem BioAssay (NCI) come the findings set out here.

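Exposure lasted 48 hours, with cells grown in 96-well plates and compounds tested at five concentrations. GI50 marks 50% less growth. TGI marks complete inhibition of growth.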

Common to all, as to test: inhibition of tumour cell growth, NCI panel, 48 h
The subject of assay [1] is UACC-62 melanoma.
For assay [2], the system named is HOP-18 NSCLC.
Assay [3] has as its system LXFL 529 NSCLC.
For assay [4], the system named is NCI-H460 lung.
Assay [5] deals with XF 498 CNS.
Assay [6] deals with HCT-15 colon.
In assay [7] the test system is DLD-1 colon.
The subject of assay [8] is RXF 393 renal.
Assay [9] relates to UACC-257 melanoma.
Assay [10] deals with A498 renal.
Assay [11] has as its system RPMI-8226 leukemia.
Assay [12] has as its system T-47D breast.

As to `CC(C)(C)c1ccnc(N=C2N=C(Nc3cc(C(C)(C)C)ccn3)c3ccccc32)c1`, the TGI in [1] was over 100 µM; in assay [2], 59.6 µM; in assay [3], over 100 µM; in [4], over 100 µM; in assay [5] it was 38.6 µM; in assay [6] it was over 100 µM. The TGI in assay [7] was over 100 µM; in [8], 54.9 µM; in assay [9] it was 76.1 µM; in [10] it was 53.4 µM.

Consider `O=[N+]([O-])c1ccc(-c2csc(=[N+]3CCCCC3)s2)cc1`, for which the TGI in [1] was over 100 µM; in assay [11], over 100 µM; in assay [2] it was over 100 µM; in [3], over 100 µM; in assay [4], over 100 µM; in [5], 48.1 µM. Further, the TGI in assay [6] was over 100 µM; in [7] it was over 100 µM; in [8] it was over 100 µM; in [9], 31.4 µM; in assay [10], 63.6 µM.

On to `CC[C@]12C=CCN3CCC4(c5cc([C@@]6(C(=O)OC)CC7CN(CCc8c6[nH]c6ccccc86)CC6CCCCC67)c(OC)cc5N(C)C4[C@](O)(C(=O)OC)C1OC(C)=O)[C@@H]32` (some centres not stated), for which the TGI in [1] was determined as 1.7 µM; in [11], 61.3 µM; in [3], 12.7 µM; in assay [4], 0.225 µM; in assay [5], 9.12 µM; in [6], 20.1 µM. Further, the TGI in assay [7] worked out at 13.2 µM; in assay [8] it was 16.9 µM; in assay [9], 18.8 µM; in assay [10], 0.576 µM. In assay [6], the GI50 was 0.693 µM.

In the case of `CC(C)=CCc1c(O)cc2oc(-c3ccc(O)cc3O)cc(=O)c2c1O`, the TGI is 34.6 µM in assay [1]; 41.4 µM in [11]; 49.8 µM in assay [12]; over 100 µM in assay [4]; over 63.2 µM in assay [6]; 64.8 µM in [8]. The TGI is over 83.8 µM in assay [9] and over 100 µM in [10].

Regarding `O=C1c2cc3c(cc2-c2c1c1ccc(Cl)cc1c(=O)n2CCCn1ccnc1)OCO3`, the GI50 was under 0.01 µM in [1]; 0.0215 µM in [11]; under 0.01 µM in assay [12]; under 0.01 µM in [4]; 0.0431 µM in assay [6]; under 0.01 µM in [8]. Also, the values for the GI50 in assay [9] and in [10] were 0.0584 µM and 0.025 µM, respectively. For the same compound, the TGI is 0.0296 µM in assay [1]; 0.546 µM in assay [11]; over 100 µM in [12]; 10.3 µM in assay [4]; over 100 µM in [6]; 0.0518 µM in [8]. The compound further had a TGI in assay [9] of over 100 µM.

Consider `CN(C)CCCNC(=O)N/N=C/c1ccccc1`, for which the TGI in assay [1], in assay [2], in [4], in assay [5], in [6] and in assay [7] was over 100 µM in each case. Further, the TGI in [8], in assay [9] and in assay [10] was over 100 µM each time.

Turning to `CCC1(CC)C(=O)N(C(=O)c2cc(OC)c(OC)c(OC)c2)N(C(=O)c2cc(OC)c(OC)c(OC)c2)C1=O`, the TGI in [1], in assay [11], in assay [12], in assay [4], in assay [6] and in [8] was over 50 µM each time. For the same compound, the TGI in assay [9] and in [10] was over 50 µM in each case.

With `OC(CC(O)(C(F)(F)Cl)C(F)(F)Cl)c1ccccc1` (configuration not stated), the TGI in [1], in assay [11], in assay [12], in assay [4], in assay [6] and in assay [8] was over 10 µM each time. For the same compound, the TGI in assay [9] is over 10 µM; in assay [10], 0.0548 µM.

Take `CC1=C(C(=O)OCCO[N+](=O)[O-])C(c2ccccc2[N+](=O)[O-])C(C(=O)OC(C)C)=C(C)N1` (configuration not stated): the TGI is 28.6 µM in [1]; over 100 µM in [11]; 46.8 µM in assay [12]; 34.2 µM in assay [4]; 30.9 µM in [6]; 30.3 µM in assay [8]. For the same compound, the TGI in [9] was 28.7 µM; in [10] it was 46.2 µM.

As to `COC1(CC[C@H](C)COC2OC(CO)C(O)C(O)C2O)O[C@H]2C[C@H]3[C@@H]4CC=C5C[C@@H](OC6OC(CO)C(OC7OC(C)C(O)C(O)C7O)C(O)C6OC6OC(C)C(O)C(O)C6O)CC[C@]5(C)[C@H]4CC[C@]3(C)[C@H]2[C@@H]1C` (some centres not stated), the GI50 was 6.95 µM in assay [1] and 4.39 µM in assay [4]. Also, the TGI worked out at 21.6 µM in assay [1]; 5.93 µM in [11]; 9.83 µM in assay [12]; 15.1 µM in assay [4]; 7.47 µM in assay [6]; 18.4 µM in [8]. The figures for the TGI in [9] and in assay [10] were 28.7 µM and 64.5 µM, respectively.

As for `CCOC(=O)c1c(-c2ccccc2)c(OC)cn1C`, the TGI in assay [1], in assay [11], in assay [12], in assay [4], in [6] and in assay [8] was over 10 µM in each case. In addition, the TGI in assay [9] and in assay [10] was over 10 µM each time.

With `O=C(NC(C(F)(F)F)(C(F)(F)F)P(=O)(Cc1ccccc1)Cc1ccccc1)C(C(F)(F)F)C(F)(F)F`, the TGI in [1] is 62.4 µM; in [11] it was 72 µM; in assay [12], 95.1 µM; in assay [4], 78.3 µM; in assay [6], over 100 µM; in [8], 47.6 µM. In addition, the results for the TGI in [9] and in [10] were 46.5 µM and 32.3 µM, respectively.

Turning to `CCOC(=O)c1c(SCc2cc(=O)[nH]c(=O)[nH]2)n(-c2ccccc2)c(=S)n(-c2ccccc2)c1=O`, the TGI in assay [1], in assay [11], in assay [12], in assay [4], in [6] and in [8] was over 100 µM throughout. The TGI in assay [9] and in assay [10] was over 100 µM each time.
